Results: US11364275B2, “Linear lipopeptide paenipeptins and methods of using the same” (priority 2017, dated 2022)
Values after ≈ are worked out from the molar mass of the structure shown. “Also recorded” adds a separate entry of the source. Where a SMILES comes first, the peptide text is derived from it. [ ]: non-standard residue; d: D form. The star is where a group is joined. Dab = NCC[C@H](N)C(=O)O; Hexanoyl = CCCCCC(=O)*

Columns and labels:
[1] = system: A. baumannii FDA-CDC AR 0063; type: cell-based, Acinetobacter baumannii; settings: FDA-CDC AR 0063, 24 h
Description: (§1) Bacterial viable counts were determined at 0, 2, 4, 6, and 24 h after antimicrobial treatment. Bacterial surviving counts at 24 h endpoints were subjected to analysis of variance (ANOVA) followed by Tukey's honest significant difference (HSD) tests using SPSS Statistics (version 24; SPSS, Inc., Chicago, Ill., USA).

[2] = system: K. pneumoniae FDA-CDC AR 0044
[3] = system: K. pneumoniae FDA-CDC AR0097; experiment: Time-kill kinetics in 95% human serum, alone and combined; type: cell-based, Klebsiella pneumoniae
Description: as §1
To further test the therapeutic potential of paenipeptin analogues, the time-kill kinetics assays of paenipeptins alone or in combination with other antibiotics were performed in 95% human serum in vitro.

[4] = system: K. pneumoniae FDA-CDC AR 0097; settings: K. pneumoniae AR 0097
[5] = system: Acinetobacter baumannii ATCC 19606; type: cell-based; settings: ATCC 19606
[6] = system: K. pneumoniae FDA-CDC AR 0080; settings: K. pneumoniae AR 0080
[7] = system: K. pneumoniae FDA-CDC AR 0034; settings: K. pneumoniae AR 0034
[8] = system: methicillin-resistant S. aureus ATCC 43300; type: cell-based, Staphylococcus aureus; settings: ATCC 43300
rabbit red blood cells = experiment: Hemolytic activity; type: cell-based; settings: for Hemolysis: relative to Triton X-100
How it was run: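 Washed defibrinated rabbit RBCs in PBS pH 7.2 incubated 30 min at 37 °C with paenipeptin analogues at 16–128 μg/mL final. Released hemoglobin read at 415 nm in the supernatant; % hemolysis relative to 0.1% Triton X-100.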

[9] = system: K. pneumoniae FDA-CDC AR 0068
[10] = system: A. baumannii FDA-CDC AR 0063; settings: A. baumannii AR 0063
[11] = system: Pseudomonas aeruginosa ATCC 27853; type: cell-based; settings: ATCC 27853
Description: (§3) The minimum inhibitory concentration (MIC) of paenipeptin analogues was determined using the broth microdilution method (Wirker, M. A. Methods for Dilution Antimicrobial Susceptibility Tests for Bacteria that Grow Aerobically: Approved Standard M07-A8; Clinical and Laboratory Standards Institute, Wayne, Pa., 2009). Seven reference strains (Acinetobacter baumannii ATCC 19606, Escherichia coli ATCC 25922, Klebsiella pneumoniae ATCC 13883, Pseudomonas aeruginosa ATCC 27853, Enterococcus faecium ATCC 19434, Staphylococcus aureus ATCC 29213 and methicillin-resistant S. aureus ATCC 43300) were subjected to MIC testing.
(§4) Paenipeptin analogues were two-fold diluted in tryptic soy broth (TSB; Becton Dickinson) and mixed with an equal volume of bacterial suspensions in TSB containing approximately 1.5×10^5 colony-forming units (CFU)/mL in a clear UV-sterilized 96-well microtiter plate (NBS, Corning Inc., Corning, N.Y.). […] The microtiter plate was incubated at 37° C. for 18-20 h.

[12] = system: Escherichia coli ATCC 25922; type: cell-based; settings: ATCC 25922
[13] = system: Klebsiella pneumoniae ATCC 13883; experiment: MIC of antibiotics with or without paenipeptin analogues (potentiation); type: cell-based; settings: K. pneumoniae ATCC 13883
Source text: (§2) Gram-negative bacteria, including Acinetobacter and Klebsiella, are intrinsically resistant to the hydrophobic antibiotic rifampicin.

[14] = system: Acinetobacter baumannii ATCC 19606; experiment: as above; type: cell-based; settings: A. baumannii ATCC 19606
Source text: as §2

[15] = system: A. baumannii FDA-CDC AR 0052; settings: FDA-CDC AR 0052
[16] = system: Klebsiella pneumoniae ATCC 13883; type: cell-based; settings: ATCC 13883
Description: as §3, §4

[17] = system: A. baumannii FDA-CDC AR 0063; experiment: Time-kill kinetics in 95% human serum, alone and combined; type: cell-based, Acinetobacter baumannii; settings: A. baumannii AR 0063, 24 h
Description: as §1
To further test the therapeutic potential of paenipeptin analogues, the time-kill kinetics assays of paenipeptins alone or in combination with other antibiotics were performed in 95% human serum in vitro. Without antimicrobial treatment, the population of A. baumannii FDA-CDC AR 0063 increased from 5.8 log to 9.3 log within 24 h. […] (FIG. 7A).

Cytotoxicity, MTT assay = type: cell-based, human; settings: human, HEK 293 cells
Description: Cytotoxicity of paenipeptin analogues was determined against a human kidney cell line (HEK 293) using MTT assays (Huang E, Yousef AE. 2014. Paenibacterin, a novel broad-spectrum lipopeptide antibiotic, neutralises endotoxins and promotes survival in a murine model of Pseudomonas aeruginosa-induced sepsis. Int J Antimicrob Agents 44: 74-77). Cell viability was measured at 24 h following the addition of lipopeptides at concentrations between 30-105 μg/ml. The viability of human embryonic kidney cells (HEK 293) decreased with the increase of paenipeptin concentration. The viability of HEK 293 cells in the presence of paenipeptin analogue 1 and 15 at 105 μg/ml was 61% and 67%, respectively (Table 10). The relatively low cytotoxicity of paenipeptin analogue 1 and 15 was correlated with their low hemolytic activity against red blood cells.

[18] = system: Enterococcus faecium ATCC 19434; type: cell-based; settings: ATCC 19434
Description: as §3, §4

[19] = system: Staphylococcus aureus ATCC 29213; type: cell-based; settings: ATCC 29213
Description: as §3, §4

[20] = system: A. baumannii FDA-CDC AR 0083; settings: A. baumannii AR 0083
[21] = system: A. baumannii FDA-CDC AR 0037; settings: A. baumannii AR 0037
[22] = system: Klebsiella pneumoniae AR 0109; settings: K. pneumoniae AR 0109, polymyxin-resistant
Description: (§5) The minimum inhibitory concentration (MIC) of paenipeptin analogues was determined using the broth microdilution method (Wirker, M. A. Methods for Dilution Antimicrobial Susceptibility Tests for Bacteria that Grow Aerobically: Approved Standard M07-A8; Clinical and Laboratory Standards Institute, Wayne, Pa., 2009).
as §4
(§6) There were at least three independent experiments with one replicate in each experiment.

[23] = system: Escherichia coli AR 0494 (mcr-1); settings: E. coli AR 0494, mcr-1, polymyxin-resistant
Description: as §5, §4, §6

E. coli UAMS-ECPR2 = settings: E. coli UAMS-ECPR2, polymyxin-resistant
Description: as §5, §4, §6

K. pneumoniae UAMS-KPPR1 = experiment: MIC, polymyxin-resistant strain; type: cell-based, Klebsiella pneumoniae
Description: as §3, §4, §6

K. pneumoniae UAMS-KPPR3 = experiment: MIC, polymyxin-resistant strain; type: cell-based, Klebsiella pneumoniae
Description: as §3, §4, §6

E. coli UAMS-ECPR1 = settings: E. coli UAMS-ECPR1, polymyxin-resistant
Description: as §5, §4, §6

For `CCCCCC(=O)N[C@@H](CCN)C(=O)N[C@H](C(=O)N[C@@H](CCN)C(=O)N[C@H](Cc1ccccc1)C(=O)N[C@@H](CC(C)C)C(=O)N[C@@H](CCN)C(=O)N[C@@H](C(=O)N[C@@H](CC(C)C)C(=O)N[C@@H](CO)C(N)=O)C(C)C)[C@@H](C)CC` [Analogue 1] (Hexanoyl-[Dab]I[Dab][dF]L[Dab][dV]LS-NH2), the “log reduction, analogue 4 μg/ml in combination with rifampicin 1 μg/ml” value [1] was 4.7-5.1 log, the MIC alone ([2]; FDA-CDC AR 0044) was 16 µg/mL (≈ 14.7 µM) and the “MIC of clarithromycin at the presence of PMBN or paenipeptin analogue at 4 μg/ml” value ([2]; K. pneumoniae AR 0044) was 0.0156 μg/ml. For the same compound, the “MIC of rifampicin at the presence of PMBN or paenipeptin analogue at 4 μg/ml” value ([2]; K. pneumoniae AR 0044) was no more than 0.0019 μg/ml, the “log reduction, analogue 4 μg/ml in combination with clarithromycin 4 μg/ml” value ([3]; 24 h) was 4.9 log and the “log reduction, analogue 4 μg/ml in combination with rifampicin 4 μg/ml” value ([3]; 24 h) was 4.9 log. The “log inactivation, single agent at 4 μg/ml” value ([3]; within 24 h) was 4.2 log, the “MIC of clarithromycin at the presence of PMBN or paenipeptin analogue at 4 μg/ml” value [4] was 0.0313-0.0625 μg/ml and the “MIC of rifampicin at the presence of PMBN or paenipeptin analogue at 4 μg/ml” value [4] was 0.0039-0.0078 μg/ml. For the same compound, the MIC [5] was greater than 32 µg/mL, the “MIC of clarithromycin at the presence of PMBN or paenipeptin analogue at 4 μg/ml” value [6] was 0.0313 μg/ml and the “MIC of rifampicin at the presence of PMBN or paenipeptin analogue at 4 μg/ml” value [6] was 0.0625 μg/ml. The “MIC of clarithromycin at the presence of PMBN or paenipeptin analogue at 4 μg/ml” value [7] was 0.25 μg/ml, the “MIC of rifampicin at the presence of PMBN or paenipeptin analogue at 4 μg/ml” value [7] was no more than 0.0019 μg/ml and the MIC [8] was greater than 32 µg/mL. It also gave a Hemolysis (rabbit red blood cells; 16 μg/mL) of 0.48 ± 0.64%, a Hemolysis (rabbit red blood cells; 32 μg/mL) of 0.41 ± 0.58% and a Hemolysis (rabbit red blood cells; 64 μg/mL) of 0.08 ± 0.85%. The “hemolytic activity (in words)” value (rabbit red blood cells; 128 μg/mL) was “little hemolysis; also recorded: nonhemolytic”, the Hemolysis (rabbit red blood cells; 128 μg/mL) was 0.61 ± 0.25% and the MIC alone ([9]; FDA-CDC AR 0068) was greater than 32 µg/mL. The “MIC of clarithromycin at the presence of PMBN or paenipeptin analogue at 4 μg/ml” value ([9]; K. pneumoniae AR 0068) was 1 μg/ml, the “MIC of rifampicin at the presence of PMBN or paenipeptin analogue at 4 μg/ml” value ([9]; K. pneumoniae AR 0068) was 0.0039-0.0156 μg/ml and the “MIC of clarithromycin at the presence of PMBN or paenipeptin analogue at 4 μg/ml” value [10] was 0.0313 μg/ml. The “MIC of rifampicin at the presence of PMBN or paenipeptin analogue at 4 μg/ml” value [10] was no more than 0.0019 μg/ml, the MIC [11] was 8 to 16 µg/mL and the MIC [12] was 8 to 16 µg/mL. For the same compound, the “MIC of rifampicin at 2 μg/mL of paenipeptin analogue” value [13] was 0.0039 μg/ml, the “MIC of rifampicin at 4 μg/mL of paenipeptin analogue” value [13] was 0.00195 μg/ml and the “MIC of rifampicin at 2 μg/mL of paenipeptin analogue” value [14] was 0.0078-0.0156 μg/ml. For the same compound, the “MIC of rifampicin at 4 μg/mL of paenipeptin analogue” value [14] was 0.00195-0.0039 μg/ml, the “Sensitization factor (rifampicin)” value ([14]; MIC without / with 4 μg/mL paenipeptin) was 4,096-8,192 and the MIC alone [15] was 2 to 4 µg/mL. The MIC [16] was no less than 32 µg/mL, the “decrease of bacterial population, analogue 4 μg/ml in combination with rifampicin 4 μg/ml” value [17] was 2.7 log and the “log reduction, analogue 4 μg/ml in combination with clarithromycin 4 μg/ml” value [17] was 1.3 log. It also gave a viability at 24 h, 30 µg/mL (Cytotoxicity, MTT assay) of 85.2 ± 10.2%, a viability at 24 h, 45 µg/mL (Cytotoxicity, MTT assay) of 78.4 ± 11.2% and a viability at 24 h, 60 µg/mL (Cytotoxicity, MTT assay) of 78.4 ± 13.5%. It also gave a viability at 24 h, 75 µg/mL (Cytotoxicity, MTT assay) of 73.1 ± 11.3%, a viability at 24 h, 90 µg/mL (Cytotoxicity, MTT assay) of 69 ± 8.14% and a viability at 24 h, 105 µg/mL (Cytotoxicity, MTT assay) of 61 ± 6.38%. For the same compound, the MIC [18] was greater than 32 µg/mL, the MIC [19] was greater than 32 µg/mL and the “MIC of clarithromycin at the presence of PMBN or paenipeptin analogue at 4 μg/ml” value [20] was 16 μg/ml. The “MIC of rifampicin at the presence of PMBN or paenipeptin analogue at 4 μg/ml” value [20] was 0.25-0.5 μg/ml, the “MIC of clarithromycin at the presence of PMBN or paenipeptin analogue at 4 μg/ml” value [21] was 0.0313 μg/ml and the “MIC of rifampicin at the presence of PMBN or paenipeptin analogue at 4 μg/ml” value [21] was 0.0039 μg/ml. For the same compound, the “increase in antibiotic activity of clarithromycin” value ([21]; analogue at 4 μg/mL) was 512 fold.
Polymyxin B [reference compound] gave a Minimum inhibitory concentration [22] of 16 to 32 µg/mL, a Minimum inhibitory concentration [23] of 2 to 8 µg/mL and a Minimum inhibitory concentration (E. coli UAMS-ECPR2) of 32 µg/mL. For the same compound, the Minimum inhibitory concentration (K. pneumoniae UAMS-KPPR1) was greater than 32 µg/mL, the Minimum inhibitory concentration (K. pneumoniae UAMS-KPPR3) was greater than 32 µg/mL and the Minimum inhibitory concentration (E. coli UAMS-ECPR1) was 32 µg/mL.
